In patent EP4664463A1, “COMPUTER-IMPLEMENTED METHOD FOR OLFACTORY PROPERTY PREDICTION” (Givaudan SA, priority 2024, dated 2025):
Substitutions are numbered along the chain they refer to. Where two headings read alike, the source gives them in different places.

What was measured:
[1] = test system: OR2M2; test: Activation of modified OR2M2 by sulfur compounds in presence of copper (luciferase); type: cell-based, human; settings: modified C-terminus
Text: The most pungent odorant in human axillary sweat with an ODT of 1 picogram / L air is 3-methyl-3-sulfanyl-hexanol (also known as 3-methyl-3-mercapto-hexanol) (Natsch et al. identification of Odoriferous Sulfanylalkanols in Human Axilla Secretions and Their Formation through Cleavage of Cysteine Precursors by a C-S Lyase Isolated from Axilla bacteria. […] 2004; 1:1058-1072). So far, no OR has been described which can selectively detect this key odorant leading to undesired axilla odor in human subjects. By screening a library of receptor variants with the C-terminal sequence SEQ ID NO: 86 in presence of copper against a library of 52 sulfur compounds (see example 5), a hitherto orphan receptor, OR2M2, was identified, which is activated by 3-methyl-3-mercapto-hexanol and closely related chemicals, but not by other sulfur odorants (Figure 19).

[2] = target: T1, OR56A4 (Homo sapiens, UniProt Q8NGH8); test: cell-based; type: cell-based; settings: wild-type
T1 construct: expressed in transfected cells; host or cells: HEK293T stably expressing human RTP1S(V227I) and RTP2(L220R)
T1 sequence (Q8NGH8 1-313): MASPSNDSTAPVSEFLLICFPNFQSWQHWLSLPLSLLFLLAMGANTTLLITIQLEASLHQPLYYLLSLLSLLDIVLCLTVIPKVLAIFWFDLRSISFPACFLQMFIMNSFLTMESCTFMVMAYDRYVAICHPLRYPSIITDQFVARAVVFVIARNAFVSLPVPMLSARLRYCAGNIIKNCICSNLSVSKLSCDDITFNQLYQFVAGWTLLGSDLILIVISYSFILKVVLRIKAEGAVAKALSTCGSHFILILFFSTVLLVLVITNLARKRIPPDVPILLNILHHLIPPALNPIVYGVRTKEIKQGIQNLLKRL
Text: (§1) To create an expression plasmid, an OR coding sequence fused at the end of TM7 to the desired C-terminus sequence was synthesized by a DNA synthesis service provider (BioCat GmbH, Germany) and inserted into pcDNA3.1(+) (Invitrogen, MA, USA) downstream of the CMV promoter sequence (SEQ ID NO: 82) using BamHI and Notl restriction sites. All the synthetic OR nucleotide sequences described below in Examples 1-15 further contained at their N-terminus a nucleotide sequence encoding a signal peptide (mmLucy-FLAG-rho, SeQ ID NOs: 80, 81) and at the C-terminus the bgh terminator sequence (SEQ ID NO: 83). All the OR expression plasmids also contain a Kozak sequence (GCCACC) between the BamHI restriction site and the start codon of the signal peptide. These plasmids thus contain a constitutively expressed OR gene.
Activation of OR56A4 by acids of different chain length was further tested. […] Replacing the wild-type with the C-terminal sequence of the functional OR51 E1 did reduce activity. However, using the optimized sequence form Examples 1-5 led to a strong signal and much lower detection threshold upon addition of all three acids.

[3] = test system: OR10J5; test: cell-based; type: cell-based, human
Text: as §1

[4] = target: T2, OR10J5 (Homo sapiens, UniProt Q8NHC4); test: cell-based; type: cell-based
T2 construct: expressed in transfected cells; host or cells: HEK293T cells stably expressing human RTP1S (V227I) and RTP2 (L220R)
T2 sequence (Q8NHC4 1-309): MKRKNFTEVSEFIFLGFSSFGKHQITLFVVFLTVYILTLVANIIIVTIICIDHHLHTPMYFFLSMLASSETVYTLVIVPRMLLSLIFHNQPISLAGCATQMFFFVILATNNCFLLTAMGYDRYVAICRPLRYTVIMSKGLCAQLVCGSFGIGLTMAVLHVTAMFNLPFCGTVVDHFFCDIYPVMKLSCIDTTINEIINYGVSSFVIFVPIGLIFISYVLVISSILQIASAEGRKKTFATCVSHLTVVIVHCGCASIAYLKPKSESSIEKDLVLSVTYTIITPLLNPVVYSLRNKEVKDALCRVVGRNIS
Text: as §1

[5] = target: T3, OR10J5 (Homo sapiens, UniProt Q8NHC4); test: cell-based; type: cell-based; remark: listed apart in the source
T3 construct: expressed in transfected cells; host or cells: HEK293T cells stably expressing human RTP1S (V227I) and RTP2 (L220R)
T3 sequence (Q8NHC4 with tags, fused parts or gaps): T2 sequence (Q8NHC4 1-309) with C301K, V303L, V304L, G305K, N307K, I308C, S309C
Text: as §1

[6] = target: T4, OR8K3 (Homo sapiens, UniProt Q8NH51, D295E/Y298D); test: cell-based; type: cell-based
T4 construct: expressed in transfected cells; host or cells: HEK293T cells stably expressing human RTP1S (V227I) and RTP2 (L220R)
T4 sequence (Q8NH51 with tags, fused parts or gaps D295E/Y298D): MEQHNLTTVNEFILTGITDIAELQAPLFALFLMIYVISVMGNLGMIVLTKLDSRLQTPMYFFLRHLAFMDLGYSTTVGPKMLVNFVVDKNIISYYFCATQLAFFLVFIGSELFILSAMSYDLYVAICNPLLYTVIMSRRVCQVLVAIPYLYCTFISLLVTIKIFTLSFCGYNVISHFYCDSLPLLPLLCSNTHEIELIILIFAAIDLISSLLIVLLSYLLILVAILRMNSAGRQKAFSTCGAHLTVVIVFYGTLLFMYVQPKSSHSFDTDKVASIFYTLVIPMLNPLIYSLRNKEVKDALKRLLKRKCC
Text: as §1
(§2) Thus, using the improved sensitivity of the assay provided by the modified variant, activation of OR8K3 by a broader set of mint-smelling molecules can be detected.
(§3) Knowing the importance of the C-terminal sequence for proper expression as observed in the previous examples, an obvious way to improve expression might be just to provide a hybrid receptor whereby the C-terminal domain in a non-functional or poorly functional receptor is replaced by the C-terminal domain of a functional receptor. […] Thus the C-terminal sequence of OR8K3 was replaced with the C-terminal sequence of the ambrettolide-receptor OR1N2 or the musk receptor OR5AN1. […] Thus the improvement achieved with the modified C-terminal sequences of this disclosure cannot be achieved by simply generating chimeric receptors combining a functional C-terminal domain of a functional receptor with a poorly expressed receptor.

[7] = target: T5, OR8K3 (Homo sapiens, UniProt Q8NH51); test: cell-based; type: cell-based
T5 construct: expressed in transfected cells; host or cells: HEK293T cells stably expressing human RTP1S (V227I) and RTP2 (L220R)
T5 sequence (Q8NH51 1-312): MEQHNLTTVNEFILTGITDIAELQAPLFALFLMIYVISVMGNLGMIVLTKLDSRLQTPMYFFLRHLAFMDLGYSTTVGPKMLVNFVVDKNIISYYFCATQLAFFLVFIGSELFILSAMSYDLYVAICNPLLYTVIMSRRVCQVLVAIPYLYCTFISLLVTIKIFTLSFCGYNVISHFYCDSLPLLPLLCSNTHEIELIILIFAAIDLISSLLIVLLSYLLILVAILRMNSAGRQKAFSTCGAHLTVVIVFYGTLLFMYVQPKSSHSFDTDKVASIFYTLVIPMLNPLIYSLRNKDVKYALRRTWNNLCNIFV
Text: as §1, §2, §3

[8] = test system: OR5B12; test: cell-based; type: cell-based, human
Text: as §1

[9] = target: T6, OR5B12 (Homo sapiens, UniProt Q96R08); test: cell-based; type: cell-based; settings: wild-type
T6 construct: expressed in transfected cells; host or cells: HEK293T cells stably expressing human RTP1S (V227I) and RTP2 (L220R)
T6 sequence (Q96R08 1-314): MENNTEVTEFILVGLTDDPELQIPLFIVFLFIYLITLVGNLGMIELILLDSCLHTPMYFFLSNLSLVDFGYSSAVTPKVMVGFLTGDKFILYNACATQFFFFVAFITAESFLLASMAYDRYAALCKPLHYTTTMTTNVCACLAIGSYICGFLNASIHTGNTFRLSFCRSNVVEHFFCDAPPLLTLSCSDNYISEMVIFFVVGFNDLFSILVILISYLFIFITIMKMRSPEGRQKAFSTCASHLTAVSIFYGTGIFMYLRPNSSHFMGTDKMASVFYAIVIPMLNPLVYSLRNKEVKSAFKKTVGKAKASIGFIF
Text: as §1

[10] = target: T7, OR5B12 (Homo sapiens, UniProt Q96R08); test: cell-based; type: cell-based
T7 construct: expressed in transfected cells; host or cells: HEK293T cells stably expressing human RTP1S (V227I) and RTP2 (L220R)
T7 sequence (Q96R08 with tags, fused parts or gaps): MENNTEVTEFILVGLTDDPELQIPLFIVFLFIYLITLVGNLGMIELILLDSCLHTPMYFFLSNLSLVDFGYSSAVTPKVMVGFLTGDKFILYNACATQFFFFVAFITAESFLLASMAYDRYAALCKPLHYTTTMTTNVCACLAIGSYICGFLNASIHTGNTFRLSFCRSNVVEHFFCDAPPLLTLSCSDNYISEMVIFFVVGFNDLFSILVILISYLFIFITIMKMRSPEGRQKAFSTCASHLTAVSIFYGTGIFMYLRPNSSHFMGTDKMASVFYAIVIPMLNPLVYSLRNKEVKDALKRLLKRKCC
Text: as §1

[11] = test system: OR8K3; test: cell-based; type: cell-based, human
Text: as §1, §2, §3

[12] = wild-type, read-out: Potency EC50
[13] = changed C-term SEQ ID NO: 86, read-out: Potency EC50

Question: Which “activation of OR2M2” value [1] does the source give for CCC(CC)C(=O)N(C)c1cccc(C)c1 [Paradisamide] here?
Answer: The value was “activated”.

Question: How did the “activation of wild-type OR56A4” value [2] turn out when CCCCCCCCC(=O)O [nonanoic acid] was run?
Answer: The value was “not”.

Question: Which “activation of OR2M2” value [1] does the source give for CCCC(C)(S)CCO (stereo not shown) [3-methyl-3-sulfanyl-hexanol] here?
Answer: The value was “activated”.

Question: What does the source list for C/C(=C\CCC=O)CCCC(C)(C)O [Mahonial, (4E)-9-hydroxy-5,9-dimethyl-4-Decenal]?
Answer: Fold-improvement potency [3]: 2.3; Fold-improvement threshold [3]: 11.5; Detection threshold; concentration for 2-fold induction [4]: 7.42 µM; EC50 [4, 12]: 46 µM; Detection threshold; concentration for 2-fold induction [5]: 0.65 µM; EC50 [5, 13]: 20 µM

Question: How did the “activation of modified receptor variant” value ([6]; OR8K3 with SEQ ID NO: 86) turn out when CC(C)[C@@H]1CC[C@@H](C)CC1=O [menthone] was run?
Answer: The value was “also activating the receptor, although with a lower potency”.

Question: What about the “Detection threshold; concentration for 2-fold induction” value [7] of the same compound?
Answer: The value was over 316 µM.

Question: With CCCCCC1C(=O)CCC1CC(=O)OC (stereo not shown) [Hedione] as the compound, how does the Comments on efficacy [8] read?
Answer: The Comments on efficacy was “Induction wild-type only 1.75-fold”.

Question: And the Fold-improvement potency [8]?
Answer: Its Fold-improvement potency is over 5.

Question: And the Fold-improvement threshold [8]?
Answer: Its Fold-improvement threshold is over 9.

Question: And the “Detection threshold; concentration for 2-fold induction” value [9]?
Answer: Its value is “n.i. >>( 250) µM”.

Question: And the EC50 ([9]; read-out: Potency EC50)?
Answer: The EC50 was over 250 µM.

Question: And the EC50 [10, 13]?
Answer: The EC50 was 58.3 µM.

Question: And the “Detection threshold; concentration for 2-fold induction” value ([10]; changed C-term. SEQ ID NO: 86)?
Answer: Its value is 29 µM.

Question: How did the “Detection threshold; concentration for 2-fold induction” value [6] turn out when CC1CCC(C(C)C)C(O)C1 (stereo not shown) [Menthol] was run?
Answer: The value was 11 µM.

Question: And the EC50 [6, 13]?
Answer: Its EC50 is 115 µM.

Question: And the Comments on efficacy [11]?
Answer: Its Comments on efficacy is 3-fold lower maximal induction for wild-type.

Question: And the Fold-improvement potency [11]?
Answer: Its Fold-improvement potency is 2.

Question: What about the functional response ([11]; OR8K3 with C-terminal sequence of OR1N2 or OR5AN1) of the same compound?
Answer: Its functional response is “did not show any functional response”.

Question: What about the “Detection threshold; concentration for 2-fold induction” value [7] of the same compound?
Answer: Its value is 160 µM.

Question: And the EC50 [7, 12]?
Answer: The EC50 was 236 µM.
